Results: patent publication US20230364025A1, “PROTEIN-RELEASE SYSTEM FOR SUSTAINED RELEASE OF PROTEINS” (THE GOVERNING COUNCIL OF THE UNIVERSITY OF TORONTO, priority 2022, published 2023)

Columns and labels:
[1] = In vitro controlled release of proteins from HAKT-oxime gels, quantified by ELISA; assay type: physicochemical; details: for cumulative release: after 2 days
Experimental: HAKT and HAKT-FcL-1 were dissolved in PBS to yield a final HA content of 12.5 mg/mL with 0 or 100 molar excesses of peptide to protein and mixed with PEGOA4 at 80 mol %. […] Release media was defined as 1×PBS comprising 0.1 wt % bovine serum albumin and Roche cOmplete™ Protease Inhibitor Cocktail (1 tablet/ 10 mL, Roche, Switzerland). Protein release was evaluated by incubating HAKT-oxime gels with 400 μL of release media on an orbital shaker at 37° C. Supernatants were collected and replaced with fresh release media after 2 h, 6 h, 1 d, 2 d, 3 d, 5 d, and 7 d. HAKT-oxime hydrogels were digested after the last time point using 500 IU/mL hyaluronidase in 400 μL of PBS. Fc-Noggin concentrations were evaluated using a mouse Noggin ELISA (RayBiotech).
Subsequently, the wells were washed with 200 μL TPBS (1× PBS with 0.05% Tween 20) four times and blotted dry on paper towels. Standard and analyte samples were added to each well (100 μL) and incubated for 2.5 h at room temperature on an orbital shaker. The wells were then washed as previously described and blotted dry. […] 100 μL of anti-Fc antibody diluted at appropriate concentrations was added to each well and incubated for 1.5 h at room temperature. A solution of 3,3′,5,5′-Tetramethylbenzidine (TMB) was added (100 ul) to each well. […] Then, a stop solution comprising 2N H2SO4 (50 μL) was added to each well and the absorbance was measured at 450 nm. Protein concentration was determined using the linear range in the standard curve. Protein samples were diluted to fit within the linear range.

Fc-Noggin = molecular target: T1, Fc-Noggin (Mus musculus, UniProt P97466); assay: Bio-layer interferometry binding of immobilized Fc-ligands to Fc-Noggin; details: biotinylated peptide immobilized at 100 nM on SAX biosensors
T1 construct: Fc (immunoglobulin Fc region); purchased R&D systems
Experimental: (§1) Binding kinetic measurements were performed on the Octet RED96 system (ForteBio, CA) using single-use high-precision streptavidin biosensors (SAX). Assay buffer was defined as 1×PBS comprising 0.05% Tween-20 (PBST). Biotinylated peptides FcL-1 and FcL-2 were immobilized at 100 nM. Non-specific interactions were minimized by including a blocking step using SuperBlock prior to each baseline response. […] A double-referencing experiment was used to assess the binding interactions of Fc-noggin to both peptides. Peptides were immobilized in sample sensors while reference sensors were dipped in assay buffer. For association, the sample and reference sensors were dipped into Fc-noggin. All experiments included one biosensor dipped in assay buffer during association for background normalization.
(§2) Affinity interactions of the modified peptide ligands to different antibodies were evaluated via bio-layer interferometry. […] Dissociation constants between the binding pairs were determined using the Octet Data Analysis Software. […] A heterogeneous 2:1 ligand binding model was used for the evaluation of the equilibrium dissociation constants of the chosen peptide ligands to anti-sFRP2 or Fc-Noggin.

panitumumab = assay: Bio-layer interferometry binding of immobilized Fc-ligands to panitumumab; details: biotinylated peptide immobilized at 100 nM on SAX biosensors
Experimental: as §1, §2

anti-sFRP2 = assay: Bio-layer interferometry binding of immobilized Fc-ligands to anti-sFRP2; details: biotinylated peptide immobilized at 100 nM on SAX biosensors
Experimental: as §1, §2

bevacizumab = assay: Bio-layer interferometry binding of immobilized Fc-ligands to bevacizumab; details: biotinylated peptide immobilized at 100 nM on SAX biosensors
Experimental: as §1, §2

hlgG1 = hlgG1 (Homo sapiens, UniProt P01857); details: interacting with hlgG1; Reese et al., 2020; cited from earlier work
Chain of hlgG1 (P01857 1-328 limits assumed): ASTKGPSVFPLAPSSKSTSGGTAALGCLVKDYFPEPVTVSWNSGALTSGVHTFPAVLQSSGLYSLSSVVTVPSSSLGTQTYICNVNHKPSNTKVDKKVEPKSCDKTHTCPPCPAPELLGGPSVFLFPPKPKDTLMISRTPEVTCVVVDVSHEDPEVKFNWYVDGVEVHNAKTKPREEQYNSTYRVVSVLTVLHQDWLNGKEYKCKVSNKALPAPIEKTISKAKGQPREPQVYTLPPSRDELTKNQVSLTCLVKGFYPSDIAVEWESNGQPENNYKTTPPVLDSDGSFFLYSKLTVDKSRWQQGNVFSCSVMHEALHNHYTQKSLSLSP

T1 sequence (P97466 with tags, fused parts or gaps): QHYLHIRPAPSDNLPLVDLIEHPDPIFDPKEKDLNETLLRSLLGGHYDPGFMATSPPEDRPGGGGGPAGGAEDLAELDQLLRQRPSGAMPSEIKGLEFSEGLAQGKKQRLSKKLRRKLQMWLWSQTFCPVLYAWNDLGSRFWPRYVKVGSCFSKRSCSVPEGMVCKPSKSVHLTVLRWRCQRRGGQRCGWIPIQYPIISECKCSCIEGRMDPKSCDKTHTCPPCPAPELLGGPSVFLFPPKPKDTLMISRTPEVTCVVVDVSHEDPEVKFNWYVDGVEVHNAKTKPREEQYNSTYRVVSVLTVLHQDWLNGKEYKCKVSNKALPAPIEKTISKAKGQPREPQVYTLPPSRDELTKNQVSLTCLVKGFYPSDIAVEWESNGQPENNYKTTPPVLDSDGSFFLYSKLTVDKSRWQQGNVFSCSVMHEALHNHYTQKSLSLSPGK

With “bevacizumab: antibody against VEGF; Research Grade Bevacizumab Biosimilar” the “controlled release from HAKT-gel” value ([1]; FcL-1 at 100-fold molar excess vs no peptide, 37° C., 7 days) was “confirmed controlled release”, the cumulative release ([1]; from HAKT-FcL1-oxime) was 60% and the cumulative release ([1]; from HAKT-oxime (no peptide)) was “approximately 100%”.
With (CFHH)2KGAKSKG [FcL2] the “binding to Fc-Noggin” value (Fc-Noggin) was “demonstrated binding only to anti-sFRP2”, the binding to panitumumab (panitumumab) was “demonstrated binding only to anti-sFRP2” and the “binding to anti-sFRP2” value (anti-sFRP2) was “demonstrated binding only to anti-sFRP2”. For the same compound, the binding to bevacizumab (bevacizumab) was “demonstrated binding only to anti-sFRP2”.
In the case of HWRWGV, the Kd (hlgG1) is listed as 14.2 µM.
With `CC(C)[C@H](NC(=O)[C@H](Cc1c[nH]c2ccccc12)NC(=O)CNC(=O)[C@H](CCCNC(=N)N)NC(=O)[C@H](Cc1c[nH]c2ccccc12)NC(=O)[C@@H](N)Cc1c[nH]cn1)C(=O)NCC(=O)N[C@@H](C)C(=O)N[C@@H](CCCCNC(=O)CCCC[C@@H]1SC[C@@H]2NC(=O)N[C@@H]21)C(=O)N[C@@H](CO)C(=O)N[C@@H](CCCCN)C(=O)NCC(=O)O` [FcL1] the “binding to Fc-Noggin” value (Fc-Noggin) was “shown to bind”, the binding to panitumumab (panitumumab) was “shown to bind” and the “binding to anti-sFRP2” value (anti-sFRP2) was “shown to bind”. For the same compound, the binding to bevacizumab (bevacizumab) was “shown to bind”.
